Literature values as cited in patent publication US6514531B1, “Controlled-release dosage forms comprising zolpidem or a salt thereof” (Sanofi-Synthelabo, priority 1998, dated 2003).

In the case of Cc1ccc(-c2nc3ccc(C)cn3c2CC(=O)N(C)C)cc1 [zolpidem], the “kinetics in the therapeutical dose range” value (between 5 and 10 mg in conventional forms) is given as “linear kinetics” and the duration of action (hypnotic action, oral, conventional forms) is given as “up to 6 hours”.
